Data published in patent US6348445B1, “Biologically active peptides with reduced toxicity in animals and a method for preparing same” (priority 1992, dated 2002).
≈ marks a conversion by molar mass, not a printed value. Where a SMILES comes first, the peptide text is derived from it. Where no end group is shown, it is not given here. The star is where a group is joined. Octanoyl = CCCCCCCC(=O)*

Tests used:
[1] = tested on: S. aureus ATCC 29213; format: cell-based; conditions: ATCC 29213
[2] = tested on: P. aeruginosa strain ATCC 27853; format: cell-based; conditions: for Minimal Inhibitory Concentration P: P. aeruginosa strain ATCC 27853, Table I
Summary of the method: (§1)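 Broth microdilution per NCCLS M7-T2: final peptide levels 0.25 to 256 μg/ml (twofold steps), inoculum 1-5×10^5 CFUs/ml in full-strength Mueller Hinton broth. MIC read as lowest concentration leaving the well clear after 16-20 hours at 37° C.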

[3] = tested on: E. coli ATCC strain 25922; assay: Minimal Inhibitory Concentration, microtiter broth dilution; format: cell-based; conditions: for MIC E. coli ATCC 25922: ATCC strain 25922; for Minimal Inhibitory Concentration E: E. coli ATCC strain 25922, Table I
Summary of the method: as §1

[4] = tested on: C. albicans; format: cell-based; conditions: C. albicans; Table I
Summary of the method: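 Broth microdilution: mid-log organisms at 1-5×10^5 CFU/ml in Mueller Hinton broth exposed to 2-fold peptide series (0.25–256 μg/ml final). After 16-20 h at 37° C, MIC read as the lowest concentration leaving the well clear.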

[5] = tested on: P. gingivalis; conditions: anaerobic, 24-48 hours
[6] = tested on: S.aureus strain ATCC 25923; assay: Minimal Inhibitory Concentration, microtiter broth dilution; format: cell-based; conditions: Mueller Hinton broth, 16-20 hours at 37° C.
Text: Table I, which follows, indicates the Minimal Inhibitory Concentration (MIC) in […] of various peptides against S.aureus strain ATCC 25923(S), P. aeruginosa strain ATCC 27853(P), E. coli ATCC strain 25922(E), and C. 4albicans (CA). […] The peptides are unsubstituted at the N-terminal; substituted with an acetyl group at the N-terminal, as indicated by Ac-; substituted with an octanoyl group at the N-terminal, as indicated by Oct-; substituted with spinogosine, as indicated by Sph-; substituted with a succinyl group, as indicated by Suc-; substituted with a hexanoyl group, as indicated by Hex-; substituted with a heptanoyl group, as indicated by Hep-; substituted with a valeryl group, as indicated by Val-; substituted with a myristryl group, as indicated by Myr-; or substituted with an ibuprofyl group, as indicated by Ibu-;
The procedure for the anti-bacterial assay is based upon the guidelines of the National Committee for Clinical Laboratory Standards, Document M7-T2, Volume 8, No. 8, 1988, which document is entirely incorporated herein by reference.
Stock solutions of peptides, with and without the appropriate substitutions, were prepared at a concentration of 512 μg/ml in sterile deionized distilled water and stored at −70° C.
The stock peptide solution was diluted in serial dilutions (1:2) down the wells of a microtiter plate so that the final concentrations of peptides in the wells were 0.25, 0.50, 1, 2, 4, 8, 16, 32, 64, 128 and 256 μg/ml. 1-5×10^5 CFUs/ml of either S. aureus ATCC 25923, E. coli ATCC 25922, P. aeruginosa ATCC 27853, or C. albicans, were added to the wells in full strength Mueller Hinton broth (BBL 11443) from a mid-log culture. The inoculum was standardized spectrophotometrically at 600 nm and was verified by colony counts. The plates were incubated for 16-20 hours at 37° C., and the minimal inhibitory concentration (MIC) for each peptide was determined. Minimal inhibitory concentration is defined as the lowest concentration of peptide which produces a clear well in the microtiter plate. The minimal inhibitory concentration of each of the peptides with and/or without the appropriate substitutions is given in Table I below.

[7] = tested on: A. viscosus; assay: anaerobic anti-microbial susceptibility test (MIC); format: cell-based; conditions: 24-48 hours
[8] = tested on: S. mutans; assay: anaerobic anti-microbial susceptibility test (MIC); format: cell-based; parameters: unit not given here; conditions: 24-48 hours
[9] = MTD of repeat-dose intraperitoneal administration; format: in vivo, SCID mice; conditions: 135 mg/kg/week, three injections per week i.p.
Description: Determinations of a maximal tolerated dose (MTD) of repeat-dose intraperitoneal (i.p.) administration of MSI-344 or MSI-1857 in 60 SCID mice were done. Mice were injected with various doses of MSI-344 or MSI-1857 twice or thrice per week. Survival and body weight were monitored. On a twice per week dosing schedule, the MTDs of MSI-344 and MSI-1857 were 12 and 134 mg/kg/week, respectively. […] On a thrice per week dosing schedule, no deaths occurred in any groups, with high dose groups of MSI-344 and MSI-1857 receiving 90 mg/kg/week and […], respectively. A transient body weight loss was seen after initial dosing in most MSI-344 and MSI-1857 groups. No body weight loss greater than 6% occurred in any group on the thrice per week dosing schedule.
To determine estimates of MTDs of MSI-344 and MSI-1857 when administered intraperitoneally on repeat-dose regimens in SCID mice. The selection of SCID mice was based on the future plans of using this strain as host for xenograft human tumor efficacy models, and a pre-requisite for determining MTD for chronic administration that may be used during the efficacy model.
SCID mice are immunocompromised and therefore they were housed and handled in sterile environments. They had access to sterile water and sterilized chow ad lib.
A 1 mg/mL solution of MSI-344 was made in saline (0.9% sodium chloride injection USP, Abbott, North Chicago, Ill.) corrected for peptide content. Solutions of MSI-344 at concentrations of 0.6, 0.3, and 0.1 mg/mL were made by diluting the 1 mg/mL solution using saline as diluent. A 10 mg/mL solution of MSI-1857 was made in saline.
Solutions of MSI-1857 at concentrations of 6.7, 3.3, 3, 2, and 1 mg/mL were made by diluting the 10 mg/mL solution using saline as diluent.
Mice (four mice per dose group) were intraperitoneally administered MSI-344 or MSI-1857 using an injection volume of 10 mL/kg of the appropriate solution concentration on a twice per week (Groups 1 through 7) or thrice per week (Groups 8 through 15) dosing schedule every week for 20 weeks. Survival was monitored daily and body weights were recorded three times per week An interim analysis was performed at 3 weeks and the results of this interim analysis is presented in the present report.

MIC S. aureus ATCC 29213 [1]	MIC P. aeruginosa ATCC 27853 [2]	MIC E. coli ATCC 25922 [3]	Compound	Minimal Inhibitory Concentration CA [4]	MIC P. gingivalis (strain) 9-14K-1 [5]	MIC P. gingivalis (strain) 381 [5]	MIC P. gingivalis (strain) 450 [5]	MIC P. gingivalis (strain) A7A1-28 [5]	MIC P. gingivalis (strain) FAY-19M-1 [5]	Minimal Inhibitory Concentration P [2]	Minimal Inhibitory Concentration E [3]	Minimal Inhibitory Concentration S [6]	MIC A. viscos [7]	MIC S. mutans [8]	lethality [9]
64 µg/mL (≈ 18.6 µM)	64 µg/mL (≈ 18.6 µM)	128 µg/mL (≈ 37.3 µM)	CC[C@H](C)[C@H](NC(=O)CNCS(=O)(=O)O)C(=O)NCC(=O)N[C@@H](CCCCNCS(=O)(=O)O)C(=O)N[C@@H](Cc1ccccc1)C(=O)N[C@@H](CC(C)C)C(=O)N[C@@H](CCCCNCS(=O)(=O)O)C(=O)N[C@@H](CCCCNCS(=O)(=O)O)C(=O)N[C@@H](C)C(=O)N[C@@H](CCCCNCS(=O)(=O)O)C(=O)N[C@@H](CCCCNCS(=O)(=O)O)C(=O)N[C@@H](Cc1ccccc1)C(=O)NCC(=O)N[C@@H](CCCCNCS(=O)(=O)O)C(=O)N[C@@H](C)C(=O)N[C@@H](Cc1ccccc1)C(=O)N[C@H](C(=O)N[C@@H](CCCCNCS(=O)(=O)O)C(=O)N[C@H](C(=O)N[C@@H](CCSC)C(=O)N[C@@H](CCCCNCS(=O)(=O)O)C(=O)N[C@@H](CCCCNCS(=O)(=O)O)C(N)=O)[C@@H](C)CC)C(C)C	–	–	–	–	–	–	–	–	–	–	–	–
–	–	–	CCCCCCCC(=O)N[C@@H](CCCCN)C(=O)N[C@H](C(=O)N[C@@H](C)C(=O)N[C@@H](CCCCN)C(=O)N[C@@H](CCCCN)C(=O)N[C@H](C(=O)N[C@@H](C)C(=O)N[C@@H](CCCCN)C(=O)N[C@H](C(=O)N[C@@H](C)C(=O)N[C@@H](CCCCN)C(=O)N[C@@H](CCCCN)C(=O)N[C@H](C(=O)N[C@@H](C)C(=O)N[C@@H](CCCCN)C(=O)N[C@H](C(=O)N[C@@H](C)C(=O)N[C@@H](CCCCN)C(=O)N[C@@H](CCCCN)C(=O)N[C@H](C(=O)N[C@@H](C)C(=O)O)[C@@H](C)CC)[C@@H](C)CC)[C@@H](C)CC)[C@@H](C)CC)[C@@H](C)CC)[C@@H](C)CC [Oct-(SEQ ID NO: 86)-OH] (Octanoyl-KIAKKIAKIAKKIAKIAKKIA-OH)	128 µg/mL	1 μl/ml	1 μl/ml	1 μl/ml	1 μl/ml	1 μl/ml	4 µg/mL	2 µg/mL	8 µg/mL	32 μl/ml	16	–
–	–	–	CCCCCCCC(=O)N[C@@H](CCCCN)C(=O)N[C@H](C(=O)N[C@@H](C)C(=O)N[C@@H](CCCCN)C(=O)N[C@@H](CCCCN)C(=O)N[C@H](C(=O)N[C@@H](C)C(=O)N[C@@H](CCCCN)C(=O)N[C@H](C(=O)N[C@@H](C)C(=O)N[C@@H](CCCCN)C(=O)N[C@@H](CCCCN)C(=O)N[C@H](C(=O)N[C@@H](C)C(N)=O)[C@@H](C)CC)[C@@H](C)CC)[C@@H](C)CC)[C@@H](C)CC [Oct-(SEQ ID NO: 153)-NH2] (Octanoyl-KIAKKIAKIAKKIA-NH2)	64 µg/mL	–	–	–	–	–	8 µg/mL	32 µg/mL	8 µg/mL	–	–	–
–	–	–	O=S([O-])S(=O)(=O)[O-].[Na+].[Na+] [Sodium metabisulfite, reference compound]	–	–	–	–	–	–	–	–	–	–	–	no lethality
16 µg/mL	32 µg/mL	16 µg/mL	GIGKFLKKAKKFGKAFVKIMKK-NH2 [SEQ ID NO: 155-NH2]	–	–	–	–	–	–	–	–	–	–	–	–
–	–	–	H-KIAKKIAKIAKKIAKIAKKIA-OH [(SEQ ID NO: 86)-OH, (Lys Ile Ala Lys Lys Ile Ala)3]	256 µg/mL	16 μl/ml	16 μl/ml	4 μl/ml	4 μl/ml	8 μl/ml	32 µg/mL	2 µg/mL	128 µg/mL	32 μl/ml	16	–
